Measurements published in patent US12077483B2, “Modified amine lipids” (Intellia Therapeutics, Inc., priority 2018, dated 2024).
Values joined by “and” are separate entries in the source; they are usually repeats but may differ in a detail not shown here. Equal values may be shown once.

What was measured:
mouse TTR = assay: Serum TTR ELISA in mice after LNP delivery; format: in vivo; conditions: mouse serum, relative to TSS control of same experiment
Procedure, shortened: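 Female CD-1 mice received LNP at 0.1 mpk unless noted; serum was collected 6 or 7 days later. Total serum TTR was measured by mouse prealbumin ELISA at 10,000- and/or 2,500-fold dilution and is expressed as a percentage of vehicle control.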

[1] = LNP average particle size and polydispersity by dynamic light scattering; format: physicochemical; conditions: LNP with the compound as amine lipid, composition ratio (mol %) 50/9/38/3 for Cmpnd 49, 50/10/38.5/1.5 for the others
Procedure, shortened: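 LNPs were diluted in PBS to a count rate of about 200-400 kcps and measured by DLS on a Zetasizer. Size is the intensity-weighted Z-average diameter, reported with number-average diameter, and the polydispersity index describes the spread of sizes around the mean.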

[2] = pKa of amine lipid by TNS fluorescence; format: physicochemical; conditions: probe TNS (6-(p-toluidino)-2-naphthalenesulfonic acid sodium salt), unformulated amine lipid in ethanol, sodium phosphate buffers -9.0
Procedure, shortened: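 Unformulated amine lipid, about 100 μM final, in 0.1 M sodium phosphate buffers spanning pH 4.5–9.0 with TNS. Fluorescence read at ex 321/em 448 nm; normalized data fitted sigmoidally to give pKa.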

[3] = RNA encapsulation efficiency of LNP (Ribogreen fluorescence assay); format: physicochemical; conditions: LNP with the compound as amine lipid, composition ratio (mol %) 50/9/38/3 for Cmpnd 49, 50/10/38.5/1.5 for the others
Procedure, shortened: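 LNP samples diluted in 1× TE with or without 0.2% Triton-X 100 for total or free RNA, stained ~10 min at room temperature in the dark with RiboGreen; fluorescence ex 488/em 525 nm against RNA standard curves. Encapsulation efficiency = (Total RNA−Free RNA)/Total RNA.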

| Compound | Serum TTR % TSS (mouse TTR; dose 0.03 mpk) [% TSS] | Serum TTR % TSS (mouse TTR; dose 0.1 mpk) [% TSS] | Num Ave Size (nm) ([1]; Expt. 6) | PDI ([1]; Expt. 6) | Z-Ave Size (nm) ([1]; Expt. 6) | pKa [2] | Encapsulation (%) ([3]; Expt. 6) | Num Ave Size (nm) ([1]; Expt. 9) | PDI ([1]; Expt. 9) | Z-Ave Size (nm) ([1]; Expt. 9) | Encapsulation (%) ([3]; Expt. 9) | Num Ave Size (nm) ([1]; Expt. 10) | PDI ([1]; Expt. 10) | Z-Ave Size (nm) ([1]; Expt. 10) | Encapsulation (%) ([3]; Expt. 10) | Serum TTR % TSS (mouse TTR; dose 0.03 mpk, 0.03 mg/kg) |
| --- | --- | --- | --- | --- | --- | --- | --- | --- | --- | --- | --- | --- | --- | --- | --- | --- |
| CCCCC/C=C\C/C=C\CCCCCCCC(=O)OCC(COC(=O)CCCCCCC/C=C\C/C=C\CCCCC)OC(=O)C1(C(CCCCCCCC)OC(=O)NCCN(C)CC)CC1 (centres unmarked) [Compound 86, 2-((1-(1-(((2-(ethyl(methyl)amino)ethyl)carbamoyl)oxy)nonyl)cyclopropane-1-carbonyl)oxy)propane-1,3-diyl (9Z,9′Z,12Z,12′Z)-bis(octadeca-9,12-dienoate)] | 93.10 | 28.80 | 68 | 0.04 | 87.00 | 6.23 | 98 |  |  |  |  |  |  |  |  |  |
| CCCCC/C=C\C/C=C\CCCCCCCC(=O)OCC(COC(=O)CCCCCCC/C=C\C/C=C\CCCCC)OC(=O)CC[C@H](CCCCCC)OC(=O)NCCN1CCCC1 [Compound 89, 2-(((S)-4-(((2-(pyrrolidin-1-yl)ethyl)carbamoyl)oxy)decanoyl)oxy)propane-1,3-diyl (9Z,9′Z,12Z,12′Z)-bis(octadeca-9,12-dienoate)] | 48.65 |  |  |  |  | 6.76 |  | 73 | 0.01 | 88 | 98 |  |  |  |  |  |
| CCCCC/C=C\C/C=C\CCCCCCCC(=O)OCC(COC(=O)CCCCCCC/C=C\C/C=C\CCCCC)OC(=O)CC[C@@H](CCCCCC)OC(=O)NCCN1CCCC1 [Compound 90, 2-(((R)-4-(((2-(pyrrolidin-1-yl)ethyl)carbamoyl)oxy)decanoyl)oxy)propane-1,3-diyl (9Z,9′Z,12Z,12′Z)-bis(octadeca-9,12-dienoate)] | 59.95 |  |  |  |  | 6.8 |  | 81 | 0.02 | 99 | 98 |  |  |  |  |  |
| CCCCC/C=C\C/C=C\CCCCCCCC(=O)OCC(COC(=O)CCCCCCC/C=C\C/C=C\CCCCC)OC(=O)CCC(CCCCCCCC)OC(=O)NCCN(C)C (centres unmarked) [Compound 91, 2-((4-(((2-(dimethylamino)ethyl)carbamoyl)oxy)dodecanoyl)oxy)propane-1,3-diyl (9Z,9′Z,12Z,12′Z)-bis(octadeca-9,12-dienoate)] | 89 |  |  |  |  | 6.48 |  |  |  |  |  | 82 | 0.01 | 97 | 98 |  |
| CCCCC/C=C\C/C=C\CCCCCCCC(=O)OCC(COC(=O)CCCCCCC/C=C\C/C=C\CCCCC)OC(=O)CCC(CCCCCCCC)OC(=O)OC1CCN(C)CC1 (centres unmarked) [Compound 92, 2-((4-((((1-methylpiperidin-4-yl)oxy)carbonyl)oxy)dodecanoyl)oxy)propane-1,3-diyl (9Z,9′Z,12Z,12′Z)-bis(octadeca-9,12-dienoate)] | 120 |  |  |  |  | 5.96 |  |  |  |  |  | 51 | 0.06 | 67 | 98 |  |
| CCCCC/C=C\C/C=C\CCCCCCCC(=O)OCC(COC(=O)CCCCCCC/C=C\C/C=C\CCCCC)OC(=O)CCC(CCCCCCCC)OC(=O)NCCN1CCC1 (centres unmarked) [Compound 93, 2-((4-(((2-(azetidin-1-yl)ethyl)carbamoyl)oxy)dodecanoyl)oxy)propane-1,3-diyl (9Z,9′Z,12Z,12′Z)-bis(octadeca-9,12-dienoate)] | 100 |  |  |  |  | 6.96 |  |  |  |  |  | 86 | 0.01 | 103 | 98 |  |
| CCCCC/C=C\C/C=C\CCCCCCCC(=O)OCC(COC(=O)CCCCCCC/C=C\C/C=C\CCCCC)OC(=O)CCC(CCCCCCCC)OC(=O)OCCCCN(CC)CC (centres unmarked) [Compound 95, 2-((4-(((4-(diethylamino)butoxy)carbonyl)oxy)dodecanoyl)oxy)propane-1,3-diyl (9Z,9′Z,12Z,12′Z)-bis(octadeca-9,12-dienoate)] | 77 |  |  |  |  | 6.15 |  |  |  |  |  | 88 | 0.01 | 105 | 98 |  |
| CCCCC/C=C\C/C=C\CCCCCCCC(=O)OCC(COC(=O)CCCCCCC/C=C\C/C=C\CCCCC)OC(=O)CCC(CCCCCCCC)OC(=O)NCCN(CC)CC (centres unmarked) [Compound 96, 2-((4-(((2-(diethylamino)ethyl)carbamoyl)oxy)dodecanoyl)oxy)propane-1,3-diyl (9Z,9′Z,12Z,12′Z)-bis(octadeca-9,12-dienoate)] | 70 |  |  |  |  | 6.14 |  |  |  |  |  | 73 | 0.03 | 89 | 98 |  |
| CCCCC/C=C\C/C=C\CCCCCCCC(=O)OCC(COC(=O)CCCCCCC/C=C\C/C=C\CCCCC)OC(=O)CCCC(CCCCCCCC)OC(=O)NCCN(C)CC (centres unmarked) [Compound 97, 2-((5-(((2-(ethyl(methyl)amino)ethyl)carbamoyl)oxy)tridecanoyl)oxy)propane-1,3-diyl (9Z,9′Z,12Z,12′Z)-bis(octadeca-9,12-dienoate)] | 79 |  |  |  |  | 6.38 |  |  |  |  |  | 75 | 0.03 | 92 | 98 |  |
| CCCCC/C=C\C/C=C\CCCCCCCC(=O)OCC(COC(=O)CCCCCCC/C=C\C/C=C\CCCCC)COC(=O)C(C)(C)C(CCCCCC)OC(=O)NCCN1CCCC1 (centres unmarked) [Compound 100, 2-(((2,2-dimethyl-3-(((2-(pyrrolidin-1-yl)ethyl)carbamoyl)oxy)nonanoyl)oxy)methyl)propane-1,3-diyl (9Z,9′Z,12Z,12′Z)-bis(octadeca-9,12-dienoate)] | 46.68 |  |  |  |  | 6.6 |  | 83 | 0.05 | 102 | 99 |  |  |  |  |  |
| CCCCC/C=C\C/C=C\CCCCCCCC(=O)OCC(COC(=O)CCCCCCC/C=C\C/C=C\CCCCC)OC(=O)CCC(CC(CC)CC)OC(=O)NCCN(C)CC (centres unmarked) [Compound 103, 2-((6-ethyl-4-(((2-(ethyl(methyl)amino)ethyl)carbamoyl)oxy)octanoyl)oxy)propane-1,3-diyl (9Z,9′Z,12Z,12′Z)-bis(octadeca-9,12-dienoate)] | 72.23 | 29.05 | 82 | 0.01 | 102.00 | 6.09 | 91 |  |  |  |  |  |  |  |  |  |
| CCCCC/C=C\C/C=C\CCCCCCCC(=O)OCC(COC(=O)CCCCCCC/C=C\C/C=C\CCCCC)OC(=O)CCC(CCC(C)CCCC(C)C)OC(=O)NCCN1CCCC1 (centres unmarked) [Compound 105, 2-((7,11-dimethyl-4-(((2-(pyrrolidin-1l-yl)ethyl)carbamoyl)oxy)dodecanoyl)oxy)propane-1,3-diyl (9Z,9′Z,12Z,12′Z)-bis(octadeca-9,12-dienoate)] | 47.97 |  |  |  |  | 6.53 |  | 64 | 0.02 | 80 | 99 |  |  |  |  |  |
| CCCCC/C=C\C/C=C\CCCCCCCC(=O)OCC(COC(=O)CCCCCCC/C=C\C/C=C\CCCCC)OC(=O)CCC(CC(CC)CC)OC(=O)NCCN1CCCC1 (centres unmarked) [Compound 106, 2-((6-ethyl-4-(((2-(pyrrolidin-1-yl)ethyl)carbamoyl)oxy)octanoyl)oxy)propane-1,3-diyl (9Z,9′Z,12Z,12′Z)-bis(octadeca-9,12-dienoate)] |  |  |  |  |  | 6.8 |  | 74 | 0.01 | 91 | 99 |  |  |  |  | 82.47 % TSS and 88.7 % TSS |
| CCCCC/C=C\C/C=C\CCCCCCCC(=O)OCC(COC(=O)CCCCCCC/C=C\C/C=C\CCCCC)OC(=O)CCC(CC/C=C\CCCCC)OC(=O)NCCN(C)CC (centres unmarked) [Compound 107, 2-(((Z)-4-(((2-(ethyl(methyl)amino)ethyl)carbamoyl)oxy)tridec-7-enoyl)oxy)propane-1,3-diyl (9Z,9′Z,12Z,12′Z)-bis(octadeca-9,12-dienoate)] | 58.53 |  |  |  |  | 6.35 |  | 72 | 0.03 | 89 | 98 |  |  |  |  |  |
| CCCCC/C=C\C/C=C\CCCCCCCC(=O)OCC(COC(=O)CCCCCCC/C=C\C/C=C\CCCCC)OC(=O)CCC(CC/C=C\CCCCC)OC(=O)NCCN1CCCC1 (centres unmarked) [Compound 108, 2-(((Z)-4-(((2-(pyrrolidin-1-yl)ethyl)carbamoyl)oxy)tridec-7-enoyl)oxy)propane-1,3-diyl (9Z,9′Z,12Z,12′Z)-bis(octadeca-9,12-dienoate)] | 57.12 |  |  |  |  | 6.52 |  | 73 | 0.03 | 89 | 99 |  |  |  |  |  |
